Targets include HLA-DR DRB1*0802 (DR8) (Homo sapiens, UniProt P01903+P01911, A100R/A103L/A169T/F76Y/H45Y/I96F/K41T/L162R/M171V/P40S/Q125H/Q178H/Q39Y/Q99D/R218S/R42G/S66Y/V115G/W38E); HLA-DR DRB1*0405 (DR4) (Homo sapiens, UniProt P01903+P01911, A100R/A169T/D86S/F76Y/I96L/K127E/L162R/M171V/N62H/P40V/Q125Y/R42H/S133A/S149N/S66Y/V115G/V209L/W38E); HLA-DR DRB1*0401 (DR4) (Homo sapiens, UniProt P01903+P01911, A100K/A169T/F76Y/I96L/K127E/L162R/M171V/N62H/P40V/Q125Y/R42H/S133A/S149N/S66Y/V115G/V209L/W38E); HLA-DR DRB1*0301 (DR3) (Homo sapiens, UniProt P01903+P01911, A100K/A102G/A103R/A169T/F55Y/I96L/K41T/L162R/M171V/P40S/Q125H/Q178H/Q39Y/R42S/S66N/T106N/T262R/W38E/Y61H); HLA-DR DRB1*0101 (DR1) (Homo sapiens, UniProt P01903+P01911, A100R/D57E/F55L/F60I/F76Y/I96L/L162R/M171V/P40L/Q125E/R42F/V115G/Y59C); HLA-DR DRB1*0701 (DR7) (Homo sapiens, UniProt P01903+P01911, A100R/A102G/A103Q/D57E/D86V/E43K/F76Y/K127E/L162R/M171V/P40G/Q125H/Q99D/R33Q/R42Y/R54Q/S133A/S66F/T210M/V115G/Y107V/Y59L/Y89S); HLA-DR DRB1*0901 (DR9) (Homo sapiens, UniProt P01903+P01911, A100R/A103E/D57H/D86V/F55Y/F60I/F76Y/I96F/K127E/L162R/M171V/P40D/Q125H/Q99R/R33Q/R42F/S133A/S66N/T210M/V115G/W38K/Y107V/Y59G/Y89S).

Holding throughout (test): biochemical
What all share (type): binding

The target in a further assay is HLA-DR DRB4*0101 (DR53) (Homo sapiens, UniProt P01903+P13762, G164S). The note with it: DRB4 *0101.
A further assay deals with HLA-DR DRB5*0101 (DR51) (Homo sapiens, UniProt P01903+Q30154). The note with it: DRB5 *0101.
A further assay deals with HLA-DR DRB1*1302 (DR13) (Homo sapiens, UniProt P01903+P01911, A100E/A169T/K41T/L162R/M171V/P40S/Q125H/Q178H/Q39Y/Q99D/R42S/S66N/T262R/V115G/W38E/Y61H). The following applies: DRBI *1302.
The next assay concerns the target HLA-DR DRB1*1101 (DR11) (Homo sapiens, UniProt P01903+P01911, A100R/A169T/A87E/I96F/K41T/L162R/M171V/P40S/Q125H/Q178H/Q39Y/Q99D/R42S/S66Y/T262R/V115G/W38E). The following applies: DRB1 *1101.
For the next assay, the target named is HLA-DR DRB1*1501 (DR15) (Homo sapiens, UniProt P01903+P01911). The following applies: DRBI *1501.

Like-named read-outs stand apart in the source and are kept apart here. No end group written: not given here.

HLA-DR DRB1*1101 (DR11), sequence (P01903 26-254 limits assumed, other chains not shown): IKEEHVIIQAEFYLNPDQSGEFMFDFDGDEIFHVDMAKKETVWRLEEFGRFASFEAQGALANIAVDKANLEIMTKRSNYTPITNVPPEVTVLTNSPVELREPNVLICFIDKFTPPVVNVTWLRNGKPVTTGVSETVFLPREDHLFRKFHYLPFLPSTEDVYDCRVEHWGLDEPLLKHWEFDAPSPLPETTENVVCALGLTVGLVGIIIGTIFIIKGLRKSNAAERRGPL
HLA-DR DRB1*0301 (DR3), sequence (P01903 26-254 limits assumed, other chains not shown): as above
HLA-DR DRB1*1302 (DR13), sequence (P01903 26-254 limits assumed, other chains not shown): as above

YGRILHYLKAKEDSH: the IC50 at HLA-DR DRB1*0802 (DR8) amounted to 704 nM; against HLA-DR DRB1*0405 (DR4) (DRB1 *0405), 23 nM; on HLA-DR DRB1*0401 (DR4) (DRB1 *0401), 2340 nM; against HLA-DR DRB1*0301 (DR3), 42400 nM; at HLA-DR DRB1*0101 (DR1) (DRB1 *0101), 30 nM; against HLA-DR DRB1*0701 (DR7) (DRB1 *0701), 900 nM.

For the compound `CC[C@H](C)[C@H](NC(=O)CNC(=O)[C@H](CC(C)C)NC(=O)CNC(=O)[C@H](CCCCN)NC(=O)[C@@H](NC(=O)[C@@H](NC(=O)[C@H](Cc1ccccc1)NC(=O)[C@H](CS)NC(=O)[C@@H](NC(=O)[C@@H](N)CCC(N)=O)C(C)C)[C@@H](C)CC)[C@@H](C)O)C(=O)N[C@@H](CO)C(=O)N[C@@H](Cc1ccc(O)cc1)C(=O)NCC(=O)N[C@@H](CCCNC(=N)N)C(=O)O`, the IC50 on HLA-DR DRB1*0802 (DR8) is 41 nM; against HLA-DR DRB1*0405 (DR4) (DRB1 *0405), 295 nM; on HLA-DR DRB4*0101 (DR53) it was 876 nM; against HLA-DR DRB5*0101 (DR51), 3950 nM; on HLA-DR DRB1*1302 (DR13), 92 nM; against HLA-DR DRB1*0301 (DR3) it was 167000 nM. Moreover, the results for the IC50 against HLA-DR DRB1*0701 (DR7) (DRB1 *0701), against HLA-DR DRB1*1101 (DR11) and on HLA-DR DRB1*1501 (DR15) were 91 nM, 31 nM and 3550 nM, respectively.

Take DFSYLQDSDPDSFQD: the IC50 against HLA-DR DRB1*0802 (DR8) is over 61200 nM; against HLA-DR DRB1*0405 (DR4) (DRB1 *0405) it was over 127000 nM; at HLA-DR DRB1*0401 (DR4) (DRB1 *0401), 264 nM; on HLA-DR DRB5*0101 (DR51), over 40000 nM; at HLA-DR DRB1*1302 (DR13), over 35000 nM; against HLA-DR DRB1*0901 (DR9) (DRB1 *0901), over 107000 nM. Further, the IC50 against HLA-DR DRB1*0701 (DR7) (DRB1 *0701) was over 250000 nM; on HLA-DR DRB1*1501 (DR15), over 91000 nM.

Regarding FAGIRRDGLLLRLVD, the IC50 on HLA-DR DRB1*0802 (DR8) (read-out: DRB1 *0802) is 7650 nM; on HLA-DR DRB1*0405 (DR4) (read-out: DRB1 *0405) it was over 3370 nM; on HLA-DR DRB1*0401 (DR4) (read-out: DRB1 *0401), 7090 nM; on HLA-DR DRB1*0301 (DR3) (read-out: DRB1 *0301), 3.6 nM; on HLA-DR DRB1*0701 (DR7) (read-out: DRB1 *0701), 41100 nM.

Turning to RTSIRASLTFNRGFK, the IC50 on HLA-DR DRB1*0802 (DR8) was 5480 nM; against HLA-DR DRB1*0405 (DR4) (DRB1 *0405) it was 5130 nM; against HLA-DR DRB4*0101 (DR53) it was 79 nM; against HLA-DR DRB1*0401 (DR4) (DRB1 *0401) it was 770 nM; against HLA-DR DRB1*0301 (DR3) it was 256 nM; against HLA-DR DRB1*0701 (DR7) (DRB1 *0701), 411 nM. On HLA-DR DRB1*1101 (DR11), this compound showed an IC50 of 4810 nM.

Take VRVEILRYFYVINRL: the IC50 at HLA-DR DRB1*0802 (DR8) (read-out: DRB1 *0802) turned out to be 3580 nM; at HLA-DR DRB1*0405 (DR4) (read-out: DRB1 *0405), 18 nM; at HLA-DR DRB1*0401 (DR4) (read-out: DRB1 *0401), 140 nM; at HLA-DR DRB1*0901 (DR9) (read-out: DRB1 *0901), 485 nM; on HLA-DR DRB1*0101 (DR1) (read-out: DRB1 *0101), 1.8 nM; on HLA-DR DRB1*0701 (DR7) (read-out: DRB1 *0701) it was 14 nM.

Take GIVEQTTTSITSLYQ: the IC50 against HLA-DR DRB1*0802 (DR8) is over 54400 nM; at HLA-DR DRB1*0405 (DR4) (DRB1 *0405), 818 nM; against HLA-DR DRB1*0401 (DR4) (DRB1 *0401), 121 nM; on HLA-DR DRB1*0301 (DR3) it was 107000 nM; at HLA-DR DRB1*0101 (DR1) (DRB1 *0101), 6350 nM; on HLA-DR DRB1*0701 (DR7) (DRB1 *0701), 788 nM.

Turning to WAGLLLDTRTLEVQS, the IC50 at HLA-DR DRB1*0802 (DR8) was over 61200 nM; against HLA-DR DRB1*0405 (DR4) (DRB1 *0405) it was 1240 nM; against HLA-DR DRB1*0401 (DR4) (DRB1 *0401), 49 nM; at HLA-DR DRB5*0101 (DR51), over 102000 nM; against HLA-DR DRB1*1302 (DR13), 92 nM; at HLA-DR DRB1*0301 (DR3), 22 nM. For the same compound, the figures for the IC50 against HLA-DR DRB1*0101 (DR1) (DRB1 *0101), against HLA-DR DRB1*1101 (DR11) and on HLA-DR DRB1*1501 (DR15) were 2020 nM, 21000 nM and 3470 nM, respectively.

Consider `CSCC[C@H](NC(=O)[C@H](CCC(N)=O)NC(=O)[C@@H](NC(=O)[C@H](Cc1ccccc1)NC(=O)[C@H](C)NC(=O)[C@@H](NC(=O)CN)[C@@H](C)O)C(C)C)C(=O)N1CCC[C@H]1C(=O)N[C@@H](C)C(=O)N[C@@H](Cc1c[nH]cn1)C(=O)NCC(=O)N[C@@H](CC(C)C)C(=O)N[C@@H](Cc1ccccc1)C(=O)N1CCC[C@H]1C(=O)N[C@@H](Cc1c[nH]c2ccccc12)C(=O)O`, for which the IC50 against HLA-DR DRB1*0802 (DR8) turned out to be 99 nM; on HLA-DR DRB1*0405 (DR4) (DRB1 *0405) it was 18 nM; against HLA-DR DRB1*0401 (DR4) (DRB1 *0401) it was 8.1 nM; on HLA-DR DRB5*0101 (DR51), 43 nM; against HLA-DR DRB1*1302 (DR13), 2820 nM; at HLA-DR DRB1*0301 (DR3) it was 37300 nM. Besides, the IC50 on HLA-DR DRB1*0101 (DR1) (DRB1 *0101) worked out at 1.6 nM; on HLA-DR DRB1*0701 (DR7) (DRB1 *0701), 90 nM; on HLA-DR DRB1*1101 (DR11) it was 17 nM; against HLA-DR DRB1*1501 (DR15), 1.2 nM.

Consider ALIYNYGLLYCFRKD, for which the IC50 was over 33300 nM on HLA-DR DRB1*0802 (DR8) (read-out: DRB1 *0802), 551 nM at HLA-DR DRB1*0405 (DR4) (read-out: DRB1 *0405), 9820 nM at HLA-DR DRB1*0301 (DR3) (read-out: DRB1 *0301) and 137 nM at HLA-DR DRB1*0101 (DR1) (read-out: DRB1 *0101).

These data come from US20060079453A1, “Hla binding peptides and their uses” (priority 2002, published 2006).
